Our source for the TGI values is PubChem BioAssay (NCI).

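Cells were grown in 96-well plates and exposed to each compound for 48 hours at five concentrations; endpoints were interpolated linearly between bracketing concentrations, or set to the highest concentration if not reached. Definition used: TGI = concentration required for complete inhibition of growth.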

What all share (experiment): growth of human tumour cells (NCI), 48 h
Assay [1] deals with HCT-116 colon.
Assay [2] has as its system SK-MEL-2 melanoma.
The subject of assay [3] is RPMI-8226 leukemia.
Assay [4] has as its system OVCAR-4 ovarian.
In assay [5] the test system is A549 NSCLC.
Assay [6] concerns MCF7 breast.
Assay [7] has as its system T-47D breast.
Assay [8] deals with SW-620 colon.
Assay [9] concerns M14 melanoma.
The subject of assay [10] is RXF 393 renal.
Assay [11] has as its system NCI-H460 lung.
Assay [12] deals with HOP-62 NSCLC.
In assay [13] the test system is PC-3 prostate.
Assay [14] has as its system SK-OV-3 ovarian.
Assay [15] concerns CCRF-CEM leukemia.
In assay [16] the test system is NCI-H522 lung.
Assay [17] relates to SR leukemia.

For `O=C1NC(=S)NC(=O)C1=Cc1ccc(-c2ccccc2)cc1`, the TGI in [1], in assay [2], in assay [3], in [4], in [5] and in [6] was over 100 µM each time. The TGI in assay [7], in assay [8], in assay [9], in [10], in [11] and in assay [12] was over 100 µM each time. In addition, the TGI in assay [13], in assay [14] and in assay [15] was over 100 µM throughout.

On to `N/C(=N\N=C\c1cc(I)cc(I)c1O)NO`, for which the TGI in [1] was 76.2 µM; in assay [2], over 100 µM; in assay [4], over 100 µM; in assay [5] it was over 100 µM; in assay [6], 74.7 µM; in assay [7], over 100 µM. Also, the TGI in assay [8] is over 100 µM; in assay [16], over 100 µM; in [9] it was 44.2 µM; in assay [10], over 100 µM; in assay [11] it was over 100 µM; in assay [12], over 100 µM. Besides, the TGI in [13] was over 100 µM; in [14] it was over 100 µM; in assay [15] it was 52.4 µM.

For `COc1cc(OC)c2c(=O)c3c([N+](=O)[O-])cccc3n(C)c2c1`, the TGI in [1], in [2], in assay [3], in [4], in assay [5] and in assay [17] was over 100 µM throughout. The TGI in assay [8], in [16], in assay [9], in assay [10], in [11] and in assay [12] was over 100 µM in each case. Moreover, the TGI in assay [14] and in assay [15] was over 100 µM each time.

As for `C/C(=N/NC(=O)C[n+]1ccccc1)C(CN(CC(C)C)CC(C)C)C(=O)Nc1ccc(C)cc1C` (stereo not drawn), the TGI in assay [1], in assay [2], in assay [3], in [4], in [5] and in assay [17] was over 100 µM each time. In addition, the TGI in [8], in [16], in assay [9], in assay [10], in assay [11] and in assay [12] was over 100 µM throughout. For the same compound, the TGI in [14] and in [15] was over 100 µM in each case.

As to `CCOC(=O)c1nc2ccc(C(F)(F)F)cc2nc1Nc1ccc(F)cc1`, the TGI is over 100 µM in assay [1]; over 100 µM in assay [2]; over 100 µM in assay [4]; 82.9 µM in assay [5]; over 100 µM in [6]; over 100 µM in assay [7]. For the same compound, the TGI in [8], in [16], in assay [9], in [10], in assay [11] and in assay [12] was over 100 µM each time. The TGI in assay [13] and in [14] was over 100 µM throughout.

Take `COc1cc2c(cc1O)CN1CCC23C=C[C@@H](O)CC13` (stereo partly drawn): the TGI in assay [1], in [2], in assay [3], in assay [4], in [5] and in assay [17] was over 100 µM in each case. Also, the TGI in [8], in assay [16], in assay [9], in assay [10], in assay [11] and in assay [12] was over 100 µM throughout. Further, the TGI was over 100 µM in assay [14] and 81.3 µM in [15].

For the compound `C/C(=N\NC(=S)NC(CCC(=O)O)C(=O)O)c1cnccn1` (stereo not drawn), the TGI in assay [1], in assay [2], in [3], in [4], in [5] and in assay [17] was over 100 µM in each case. For the same compound, the TGI in [8], in [16], in assay [9], in [10], in assay [11] and in assay [12] was over 100 µM in each case. Also, the TGI in assay [14] and in assay [15] was over 100 µM in each case.

Regarding `CC1(C)OCN(c2ccc(S(N)(=O)=O)cc2)Cn2c1nc1ccccc12`, the TGI in [1], in assay [2], in [3], in assay [4], in [5] and in assay [17] was over 100 µM throughout. Besides, the TGI in assay [8], in [16], in [9], in [10], in assay [11] and in assay [12] was over 100 µM each time. The TGI in assay [14] and in assay [15] was over 100 µM each time.

As to `Nc1ncnc2c1ncn2-c1ccc([N+](=O)[O-])cn1`, the TGI in assay [1], in assay [2], in assay [3], in assay [4], in assay [5] and in assay [6] was over 100 µM throughout. Further, the TGI in [7], in assay [8], in [9], in assay [10], in assay [11] and in assay [12] was over 100 µM throughout. Besides, the TGI in assay [14] and in [15] was over 100 µM throughout.

For the compound `CN(C)/C=N\c1nncc2[nH]cnc12`, the TGI in assay [1], in assay [2], in assay [3], in [4], in assay [5] and in assay [6] was over 100 µM throughout. In addition, the TGI in assay [7], in assay [8], in [16], in assay [9], in assay [12] and in [13] was over 100 µM each time. For the same compound, the TGI in assay [14] and in [15] was over 100 µM throughout.

For `COc1cc(C2c3cc4c(cc3OC(NCCc3ccccc3)C2C)OCO4)cc(OC)c1OC` (stereo not drawn), the TGI was 18.6 µM in assay [1]; over 42.1 µM in [2]; 14.7 µM in assay [3]; over 47.7 µM in assay [4]; over 90.4 µM in assay [5]; 15.4 µM in [6]. In addition, the TGI in assay [7] is 66.8 µM; in [8] it was over 100 µM; in assay [16] it was 0.779 µM; in [9] it was over 47.6 µM; in assay [11], over 52.1 µM; in [12], over 70.3 µM. The TGI in assay [14] was over 100 µM; in [15] it was over 62.3 µM.

With `CCOC(=O)c1nc2ccccc2nc1Oc1ccc(C#N)cc1`, the TGI in assay [1], in assay [2], in assay [3], in assay [4], in assay [5] and in assay [6] was over 100 µM in each case. Also, the TGI in [7], in assay [8], in assay [9], in assay [10], in [11] and in [12] was over 100 µM in each case. In addition, the TGI in assay [13], in assay [14] and in [15] was over 100 µM throughout.

Regarding `COc1cc(C2C(C(=O)Nc3ccc([N+](=O)[O-])cc3)=C(C)NC(C)=C2C(=O)Nc2ccc([N+](=O)[O-])cc2)ccc1O`, the TGI in assay [1] is 30.9 µM; in assay [2], 34.7 µM; in assay [3] it was 59.6 µM; in assay [4] it was over 70.8 µM; in assay [5], over 100 µM; in assay [17], over 44.1 µM. Also, the TGI in assay [8] was 52.3 µM; in assay [16] it was 39.7 µM; in assay [9] it was over 60.5 µM; in assay [10], 39 µM; in [11], over 62.1 µM; in assay [12], 35 µM. The TGI in assay [14] was 77.8 µM; in assay [15] it was over 100 µM.

As for `CCOC(=O)CCC(NC(=O)c1ccc(N=Cc2nc3ccccc3nc2-c2ccccc2)cc1)C(=O)OCC` (stereo not drawn), the TGI in assay [1], in assay [2], in assay [3], in assay [4], in [5] and in [17] was over 100 µM in each case. Further, the TGI in assay [8], in [16], in assay [9], in [10], in assay [11] and in [12] was over 100 µM throughout. For the same compound, the TGI in assay [14] and in assay [15] was over 100 µM in each case.

On to `CCCCCCNC(=S)N/N=C(\C)c1ccccn1`, for which the TGI in assay [1] worked out at 15.9 µM; in assay [2] it was 22.7 µM; in assay [3] it was 9.31 µM; in assay [4], 34.7 µM; in assay [5], 14.6 µM; in assay [6], 19 µM. For the same compound, the TGI was found to be 23.4 µM in assay [7]; 19.3 µM in assay [8]; 19.8 µM in assay [16]; 6.86 µM in assay [9]; 12.5 µM in [10]; 8.81 µM in assay [11]. The TGI in assay [12] is 14.9 µM; in assay [13] it was 24.1 µM; in assay [14], 21.6 µM.

Take `CCN(CC)c1ccc(C2Nc3ccc4ccccc4c3C3=C2C(=O)CCC3)cc1` (stereo not drawn): the TGI in assay [1] was over 100 µM; in [2], over 100 µM; in [3], over 100 µM; in assay [4] it was 46.4 µM; in assay [5], over 100 µM; in assay [6] it was over 100 µM. Besides, the TGI is over 100 µM in assay [7]; over 100 µM in [8]; over 100 µM in assay [9]; 59.1 µM in assay [10]; over 100 µM in assay [11]; 69.5 µM in assay [12]. For the same compound, the TGI in assay [13], in assay [14] and in assay [15] was over 100 µM throughout.

Take `CC(C)CC(NP(=O)(O)OC1OC(C)C(O)C(O)C1O)C(=O)NC(Cc1c[nH]c2ccccc12)C(=O)O` (stereo not drawn): the TGI in assay [1], in assay [3], in assay [4], in [5], in [6] and in assay [7] was over 100 µM in each case. For the same compound, the TGI in assay [8], in [16], in [9], in [11], in assay [12] and in assay [13] was over 100 µM each time. Further, the TGI in [14] and in [15] was over 100 µM in each case.

Regarding `Oc1cc(CN2CCOCCOCCOCCOCC2)c(O)cc1CN1CCOCCOCCOCCOCC1`, the TGI in [1] was 43.4 µM; in assay [2], over 93.4 µM; in assay [3], 63.8 µM; in assay [4] it was 34 µM; in assay [5] it was over 100 µM; in assay [17] it was 43.8 µM. In addition, the TGI in assay [8] is 53.1 µM; in [16], 31.6 µM; in assay [9], 38.9 µM; in assay [10], 60.5 µM; in [11], over 100 µM; in assay [12] it was over 100 µM. Moreover, the results for the TGI in assay [14] and in assay [15] were over 100 µM and 44 µM, respectively.

On to `CCc1[nH]c(=O)c2oc3cc4ccccc4cc3c2c1C(=O)O`, for which the TGI in assay [1], in assay [2], in assay [4], in assay [5], in assay [17] and in [8] was over 10 µM each time. For the same compound, the TGI in assay [16], in assay [9], in [10], in assay [11] and in assay [13] was over 10 µM in each case.
